Converted amounts (≈) assume the structure as drawn.
Assays:
Escherichia coli = test: Antibacterial activity against Escherichia coli ATCC35218 after 24 hrs by MTT assay; format: functional; conditions: ATCC35218, 24 h
[1] = biological target: T1, 3-oxoacyl-[acyl-carrier-protein] synthase 3 (Escherichia coli, UniProt C3TDZ2); test: Inhibition of N-terminal His-tagged Escherichia coli FabH expressed in Escherichia coli BL21 (DE3) using [3H]acetyl-coA after 25 mins by liquid scintillation counting
T1 sequence (C3TDZ2 whole entry): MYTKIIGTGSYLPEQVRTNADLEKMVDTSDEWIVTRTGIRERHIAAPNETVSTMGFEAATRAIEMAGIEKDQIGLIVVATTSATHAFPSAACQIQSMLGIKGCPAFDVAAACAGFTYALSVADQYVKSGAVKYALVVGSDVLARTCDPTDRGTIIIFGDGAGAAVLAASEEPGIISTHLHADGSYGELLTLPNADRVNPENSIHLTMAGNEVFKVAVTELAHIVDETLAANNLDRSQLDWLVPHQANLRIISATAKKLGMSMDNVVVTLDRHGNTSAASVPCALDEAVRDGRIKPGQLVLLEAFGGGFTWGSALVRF

Staphylococcus aureus = test: Antibacterial activity against Staphylococcus aureus ATCC6538 after 24 hrs by MTT assay; format: functional; conditions: ATCC6538, 24 h
[2] = Toxicity in erythrocytes assessed as hemolytic activity; format: cell-based; conditions: erythrocyte
Bacillus subtilis = test: Antibacterial activity against Bacillus subtilis ATCC6633 after 24 hrs by MTT assay; format: functional; conditions: ATCC6633, 24 h
Pseudomonas aeruginosa = test: Antibacterial activity against Pseudomonas aeruginosa ATCC13525 after 24 hrs by MTT assay; format: functional; conditions: ATCC13525, 24 h

Compound | MIC (Escherichia coli) | IC50 [1] | MIC (Staphylococcus aureus) | MIC (Bacillus subtilis) | MIC (Pseudomonas aeruginosa) | Ki [1] | MHC [2]
Cc1ccc(/C=C/C(=O)OC(C)Cn2c([N+](=O)[O-])cnc2C)cc1 (stereo unspecified) | 100 µg/mL (≈ 304 µM) | – | > 100 µg/mL | > 100 µg/mL | 50 µg/mL (≈ 152 µM) | – | –
COc1ccc(/C=C/C(=O)OC(C)Cn2c([N+](=O)[O-])cnc2C)cc1 (stereo unspecified) | > 100 µg/mL | – | 50 µg/mL (≈ 145 µM) | 50 µg/mL (≈ 145 µM) | > 100 µg/mL | – | –
Cc1ncc([N+](=O)[O-])n1CC(C)OC(=O)/C=C/c1cccc2ccccc12 (stereo unspecified) | 25 µg/mL (≈ 68.4 µM) | 48.9 µM | 50 µg/mL (≈ 137 µM) | 25 µg/mL (≈ 68.4 µM) | 50 µg/mL (≈ 137 µM) | – | > 10 mg/mL
Cc1ncc([N+](=O)[O-])n1CC(C)OC(=O)/C=C/c1ccc2ccccc2c1 (stereo unspecified) | 50 µg/mL (≈ 137 µM) | – | 100 µg/mL (≈ 274 µM) | 50 µg/mL (≈ 137 µM) | 50 µg/mL (≈ 137 µM) | – | –
Cc1ncc([N+](=O)[O-])n1CC(C)OC(=O)/C=C/c1cccs1 (stereo unspecified) | 50 µg/mL (≈ 156 µM) | – | 50 µg/mL (≈ 156 µM) | > 100 µg/mL | 50 µg/mL (≈ 156 µM) | – | –
Cc1ncc([N+](=O)[O-])n1CC(C)OC(=O)/C=C/c1ccccc1 (stereo unspecified) | > 100 µg/mL | – | > 100 µg/mL | > 100 µg/mL | > 100 µg/mL | 1.32 pM | –
Cc1ncc([N+](=O)[O-])n1CC(C)OC(=O)/C=C/c1ccccc1F (stereo unspecified) | > 100 µg/mL | – | > 100 µg/mL | > 100 µg/mL | > 100 µg/mL | – | –
Cc1ncc([N+](=O)[O-])n1CC(C)OC(=O)/C=C/c1ccccc1Cl (stereo unspecified) | 50 µg/mL (≈ 143 µM) | – | 50 µg/mL (≈ 143 µM) | 50 µg/mL (≈ 143 µM) | 25 µg/mL (≈ 71.5 µM) | – | –
Cc1ncc([N+](=O)[O-])n1CC(C)OC(=O)/C=C/c1ccccc1Br (stereo unspecified) | 25 µg/mL (≈ 63.4 µM) | 40.1 µM | 25 µg/mL (≈ 63.4 µM) | 50 µg/mL (≈ 127 µM) | 25 µg/mL (≈ 63.4 µM) | – | > 10 mg/mL
COc1ccccc1/C=C/C(=O)OC(C)Cn1c([N+](=O)[O-])cnc1C (stereo unspecified) | > 100 µg/mL | – | > 100 µg/mL | > 100 µg/mL | > 100 µg/mL | 1.79 pM | –
COc1cccc(/C=C/C(=O)OC(C)Cn2c([N+](=O)[O-])cnc2C)c1 (stereo unspecified) | > 100 µg/mL | – | > 100 µg/mL | > 100 µg/mL | > 100 µg/mL | 2.73 pM | –
Cc1ncc([N+](=O)[O-])n1CC(C)OC(=O)/C=C/c1ccc(F)cc1 (stereo unspecified) | 50 µg/mL (≈ 150 µM) | – | 100 µg/mL (≈ 300 µM) | 50 µg/mL (≈ 150 µM) | 50 µg/mL (≈ 150 µM) | – | –
O=C(O)/C=C/c1ccccc1 [CINNAMIC ACID] | – | 43.4 µM | – | – | – | – | > 10 mg/mL
NC[C@H]1O[C@H](O[C@H]2[C@H](O)[C@@H](O[C@H]3O[C@H](CO)[C@@H](O)[C@H](N)[C@H]3O)[C@H](N)C[C@@H]2N)[C@H](O)[C@@H](O)[C@@H]1O [KANAMYCIN] | 3.13 µg/mL (≈ 6.46 µM) | – | 1.56 µg/mL (≈ 3.22 µM) | 1.56 µg/mL (≈ 3.22 µM) | 3.13 µg/mL (≈ 6.46 µM) | – | –
Cc1ncc([N+](=O)[O-])n1CC(C)O (stereo unspecified) [SECNIDAZOLE] | – | 28.5 µM | – | – | – | – | > 10 mg/mL

Now from value to compound, other results behind:

MIC (Escherichia coli) | IC50 [1] | MIC (Staphylococcus aureus) | MIC (Bacillus subtilis) | MIC (Pseudomonas aeruginosa) | Ki [1] | Compound | MHC [2]
12.5 µg/mL (≈ 35.7 µM) | 34.3 µM | 25 µg/mL (≈ 71.5 µM) | 12.5 µg/mL (≈ 35.7 µM) | 25 µg/mL (≈ 71.5 µM) | – | Cc1ncc([N+](=O)[O-])n1CC(C)OC(=O)/C=C/c1ccc(Cl)cc1 (stereo unspecified) | > 10 mg/mL
6.25 µg/mL (≈ 15.9 µM) | 15.6 µM | 3.13 µg/mL (≈ 7.94 µM) | 3.13 µg/mL (≈ 7.94 µM) | 6.25 µg/mL (≈ 15.9 µM) | – | Cc1ncc([N+](=O)[O-])n1CC(C)OC(=O)/C=C/c1ccc(Br)cc1 (stereo unspecified) | > 10 mg/mL
1.56 µg/mL (≈ 3.99 µM) | 2.5 µM | 1.56 µg/mL (≈ 3.99 µM) | 6.25 µg/mL (≈ 16 µM) | 3.13 µg/mL (≈ 8 µM) | – | Cc1ncc([N+](=O)[O-])n1CC(C)OC(=O)/C=C/c1ccc(-c2ccccc2)cc1 (stereo unspecified) | > 10 mg/mL
3.13 µg/mL (≈ 7.43 µM) | 6.7 µM | 3.13 µg/mL (≈ 7.43 µM) | 6.25 µg/mL (≈ 14.8 µM) | 6.25 µg/mL (≈ 14.8 µM) | – | Cc1ncc([N+](=O)[O-])n1CC(C)OC(=O)/C=C/c1ccc(OCc2ccccc2)cc1 (stereo unspecified) | > 10 mg/mL
6.25 µg/mL (≈ 17.4 µM) | 19.8 µM | 6.25 µg/mL (≈ 17.4 µM) | 12.5 µg/mL (≈ 34.9 µM) | 6.25 µg/mL (≈ 17.4 µM) | – | Cc1ncc([N+](=O)[O-])n1CC(C)OC(=O)/C=C/c1ccc(N(C)C)cc1 (stereo unspecified) | > 10 mg/mL
3.13 µg/mL (≈ 8.15 µM) | 9.4 µM | 12.5 µg/mL (≈ 32.5 µM) | 6.25 µg/mL (≈ 16.3 µM) | 6.25 µg/mL (≈ 16.3 µM) | – | Cc1ncc([N+](=O)[O-])n1CC(C)OC(=O)/C=C/c1ccc(Cl)cc1Cl (stereo unspecified) | > 10 mg/mL
3.13 µg/mL (≈ 9.39 µM) | 8.2 µM | 6.25 µg/mL (≈ 18.8 µM) | 6.25 µg/mL (≈ 18.8 µM) | 3.13 µg/mL (≈ 9.39 µM) | – | Cc1ncc([N+](=O)[O-])n1CC(C)OC(=O)/C=C/c1cccc(F)c1 (stereo unspecified) | > 10 mg/mL
12.5 µg/mL (≈ 31.7 µM) | 27.5 µM | 12.5 µg/mL (≈ 31.7 µM) | 25 µg/mL (≈ 63.4 µM) | 12.5 µg/mL (≈ 31.7 µM) | – | Cc1ncc([N+](=O)[O-])n1CC(C)OC(=O)/C=C/c1cccc(Br)c1 (stereo unspecified) | > 10 mg/mL

— ChEMBL document CHEMBL1806404, “Synthesis, molecular modeling and biological evaluation of β-ketoacyl-acyl carrier protein synthase III (FabH) as novel antibacterial agents” (Bioorg Med Chem, 2011)
